Measurements as given in patent publication US8697662B2, “Methods for treating Kaposi sarcoma” (PTC Therapeutics, Inc., priority 2009, dated 2014).

Assays:
[1] = tested on: HT1080 spheroids; assay: 3-dimensional growth of HT1080 spheroids (DNA content, BrdU, morphology); type: cell-based, human
Experimental: Experimental Design. HT1080 cells grown as a monolayer were trypsinized and seeded onto a 0.75% agar noble base to prevent the cells from attaching to the bottom of the tissue culture plate and to allow/promote the cells to self-adhere and grow as 3-dimensional spheroids. […] The cells were incubated for 22 and 45 hours at 37° C., in the presence of a 10% CO2 atmosphere. Spheroids were visually checked daily for morphological changes and a medium was replenished two times per week. […] These pulse labeled spheroids were then harvested, washed and trypsinized (triple action solution, Gibco), pelleted and prepared for FACS analysis with a FITC BrdU Flow Kit, (BD Pharmingen). Cells were fixed and permeabilized with paraformadehyde and DNA stained with 7-AAD followed by incubation with an antibody which specifically recognizes […] incorporated into DNA. As described in Section 9.3.1.4. Cells were analyzed and sorted by 7-AAD signal (DNA content) to determine cell cycle phase, and BrdU content (percent actively synthesizing DNA).
Spheroids, prepared as above, were treated with either vehicle alone (0.5% DMSO v/v final) added to the media or a Compounds provided herein (10 nM or 50 nM final concentration) in media to which vehicle has been added.

[2] = tested on: VEGF-A; assay: Patients with Kaposi Sarcoma: circulating serum and plasma VEGF-A levels; type: in vivo, human
Excerpt: Assaying secreted cytokines characteristic for KS: To measure the effect of a Compound on KS, serum and plasma may be evaluated for levels of VEGF, VEGF-C, VEGF-D, VEGF-R1, VEGF-R2, VEGF165b, P1GF, IL-6, IL-8 and IL-10 at baseline (pre-dose of a Compound on Day 1) and mid-cycle (e.g., Day 15) of cycle 1, on Day 1 of all subsequent cycles, and at the end of the study. Depending on the results of these assays, other potential serum markers characteristic for KS may also be measured.

[3] = Oral toxicokinetics in dogs; type: in vivo, beagle dogs
Experimental: (§1) The pharmacokinetic evaluations in mice were adjuncts to the primary pharmacodynamic xenograft studies. The evaluations in rats included toxicokinetic assessments in single-dose, 7-day, and 28-day toxicology studies as well as a mass-balance study after a single oral dose of ^14C-Compound #10. The evaluations in dogs included toxicokinetic assessments in 7-day and 28-day toxicology studies. In the studies performed, rodents were dosed once daily with Compound #10 formulated in vehicle and administered via oral gavage.

[4] = ECG and blood pressure assessments in 7-day and 28-day dog toxicity studies; type: in vivo, beagle dogs
[5] = tested on: MDA MB 468 xenografts; assay: Tumor perfusion by DCE-MRI in MDA MB 468 xenografts; type: in vivo, athymic nude mice; details: 10 mg/kg oral QD
Excerpt: Experimental Design. Dynamic contrast-enhanced magnetic resonance imaging can be used preclinically and clinically to evaluate the anatomy of soft tissues, including the identification and accurate measurement of tumor volumes. In addition, evaluation of the intratumoral pharmacokinetics of contrast agents containing gadolinium can be used to measure vascular permeability characteristics. Coupling gadopentetate dimeglumine gadolinium to a […] like bovine serum albumin can reveal information about the necrotic (non-perfused) and non-necrotic (perfused) tumor volumes, and the percentage of vascular blood volume relative to the perfused tumor volume (known as the fractional blood volume [fBV]). Use of a […] tracer, gadopentetate dimeglumine, can reveal information regarding the volume transfer coefficient (K^trans), a variable that represents a combination of vascular permeability, vascular surface area, and blood flow.
Before each DCE-MRI scan, mice were injected intravenously with gadolinium-containing contrast dyes (bovine serum albumin-gadopentetate dimeglumine conjugate at ˜0.03 mmol/kg followed by gadopentetate dimeglumine at ˜0.2 mmol/kg). Baseline DCE-MRI measurements were taken on Day −1, test Compounds were administered on Day 0 through Day 5, and additional DCE-MRI measurements were taken on Days 1, 3, and 5. Image analyses were conducted with customized software. Total tumor volumes were measured by semi-automatically segmenting a region of interest around an anatomical image of the tumor. Tumor volumes of necrotic and non-necrotic tissues were measured by applying the same semi-automated segmentation process to a contrast dyed image. fBV and K^trans were computed using a standard Kety PK model.

[6] = Oral pharmacokinetics / toxicokinetics in rats; type: in vivo, Sprague Dawley rats
Experimental: as §1

[7] = tested on: HT1080 xenografts; assay: Intratumoral microvessel density (CD31 immunostain) and tumor VEGF in HT1080 xenografts; type: in vivo, athymic nude mice; details: 5 mg/kg BID oral (given as racemic mixture), 10 days
Experimental: Experimental Design. HT1080 cells (5×10^6 cells/mouse) were implanted subcutaneously in male athymic nude mice.
At the end of treatment, the mice were sacrificed. Excised tumors were assayed by ELISA for VEGF content as described in Section 9.1.1.1, and were sectioned and immunostained with an anti murine CD31 antibody that is specific for endothelial cells.

[8] = tested on: HT1080 cells; assay: Anchorage-independent colony formation of HT1080 cells in agar; type: cell-based, human; details: 10 and 50 nM, day 18; not statistically significant
Experimental: Experimental Design. HT1080 cells growing in monolayer were trypsinized, counted and suspended in a 0.35% agar noble/1× complete DMEM solution at 37° C. at a concentration of 2,500 cells/mL. One ml of this solution was layered over a semisolid base consisting of 0.5 mL of 0.75% agar noble/1× complete DMEM in a six well tissue culture plate. […] Tissue culture plates were then returned to the incubator and colonies were allowed to form. […] On day 18 the vehicle-treated wells had colonies of sufficient size to count (>50 cells/colony). At this time, for increased visualization, 1.5 mL of a 2× working volume of (3-(4,5-Dimethylthiazol-2-yl)-2,5-diphenyltetrazolium bromide, a tetrazole) (MTT, Invitrogen, Cat #C35007) was added and the plates were returned to the incubator for 2 hours until colonies were stained by conversion of the MTT to purple formazan crystals. Colonies were then visually counted under a dissecting microscope.

COc1ccc(C2c3[nH]c4ccc(Cl)cc4c3CCN2C(=O)Oc2ccc(Cl)cc2)cc1 (racemic) [Compound #10]
percentage of cells that incorporated BrdU (cells in S-phase) (in words) ([1]; HT1080 spheroids, 24 or 48 hours): not significantly altered
spheroid morphology (in words) ([1]; maintained in the presence of compound for three weeks, data not shown): no obvious morphological changes
cell cycle distribution of HT1080 spheroids (in words) ([1]; treated for 24 hours): not affected
cell cycle distribution of HT1080 spheroids (in words) ([1]; treated for 48 hours): not affected
circulating serum VEGF-A levels (in words) ([2]; patients (FIG. 35A)): dose responsive reduction
circulating plasma VEGF-A levels (in words) ([2]; patients (FIG. 35B)): dose responsive reduction
oral bioavailability (in words) [3]: orally bioavailable
relationship between dose and plasma exposure (in words) ([3]; oral): bell-shaped curve
QTc values ([4]; males, 60 mg/kg/day, 28-day study): comparable to controls
ECG or blood pressure results ([4]; through 120 mg/kg/day for 7-days and through 60 mg/kg/day for 28-days, oral): did not have any toxicological effects
mean K^trans in non-necrotic tissue (in words) ([5]; Day -1 to Day 5): decreased
mean non-necrotic tumor volume (in words) ([5]; Day -1 to Day 5): decreased
mean total tumor volume (DCE-MRI), change (in words) ([5]; Day -1 to Day 5): little mean change
mean necrotic (non perfused) tumor volume (in words) ([5]; significant by Day 1): rapidly increased
mean tumor fBV in non-necrotic tissue (in words) ([5]; significant vs vehicle on Day 5): declined after Day 3
oral bioavailability (in words) [6]: orally bioavailable
relationship between dose and plasma exposure (in words) ([6]; oral): bell-shaped curve
tumor vessel count (CD31 immunostain) [7]: unchanged
number of colonies formed (in words) [8]: modest trend toward a reduced number of colonies
